Results on three compounds are retold here after PMC8179336, “Impact of sphingosine and acetylsphingosines on the aggregation and toxicity of metal-free and metal-treated amyloid-β” (Chemical Science, 2020).

SMILES strings stand for the structures.

T1 sequence (P05067 672-711 limits assumed): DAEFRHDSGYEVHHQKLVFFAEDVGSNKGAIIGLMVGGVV

The assay concerns the target T1, amyloid-β (Aβ40) (Homo sapiens, UniProt P05067).
T1 construct: gene APP; Aβ40
The assay is described as follows: ITC and 2D 1H-15N SOFAST-HMQC NMR (below and above the CAC). It counts as binding.
Regarding `CCCCCCCCCCCCC/C=C/[C@H](OC(C)=O)[C@@H](N)CO` [3-O-Ac-SP, (2S,3S,E)-2-amino-1-hydroxyoctadec-4-en-3-yl acetate], the “ITC and 2D 1H-15N SOFAST-HMQC NMR (below and above the CAC)” value (from here on “ITC and 2D 1H-15N SOFAST-HMQC NMR”) was “These observations indicate weak and nonspecific interactions of both N-Ac-SP and 3-O-Ac-SP towards Aβ”.

Take `CCCCCCCCCCCCC/C=C/[C@@H](O)[C@H](CO)NC(C)=O` [N-Ac-SP, (2S,3R,4E)-2-(acetylamino)-4-octadecene-1,3-diol]: the “ITC and 2D 1H-15N SOFAST-HMQC NMR” value was “Interactions between the two acetylsphingosines and Aβ exhibited spontaneous complexation showing an endothermic process”.

Consider `CCCCCCCCCCCCC/C=C/[C@@H](O)[C@@H](N)CO` [SP, (2S,3R)-2-aminooctadec-4-trans-ene-1,3-diol], for which the “ITC and 2D 1H-15N SOFAST-HMQC NMR” value was “For the association of SP with Aβ, an endothermic isotherm was recorded with negative Gibbs free energy change”.
